Assay results: patent US4172143A, “2-Methoxy-benzamide derivatives” (priority 1974, dated 1979)
Counter-ions that a name gives are not always drawn. Like-named read-outs stand apart in the source and are kept apart here.

Columns and labels:
in vivo = conditions: for LD50 at 48 h: LD 50 over 48 hours
Procedure: The compounds were administered in the form of their hydrochlorides or of their methanesulphonates.
The acute toxicity was evaluated in Swiss CDl mice of both sexes, of average weight 20 g. The 50% lethal dose (LD 50) of each product was determined by a graphical method.

[1] = tested on: stereotypies induced by apomorphine; assay: Antagonism towards stereotypies induced by apomorphine in rats (method of Janssen); assay type: in vivo, male Sprague-Dawley (Charles River) rats; conditions: for ED50: Rattus norvegicus, read-out: Antagonism to stereotypies induced by apomorphine in rats, AD 50; for Antagonism to stereotypies induced by apomorphine in rats, AD 50: oral; for antagonism to stereotypies induced in rats by apomorphine: oral administration
Text: (1) Antagonism towards stereotypies induced by apomorphine in male Sprague-Dawley (Charles River) rats of average weight 130 g, in accordance with the method of Janssen and colleagues (Arzneim. Forsch. 1960, 10, 1003).
(§1) In these two tests, the results are expressed by the 50% active doses (AD 50).

[2] = tested on: emetic effect induced by apomorphine; assay: Antagonism towards emetic effect induced by apomorphine in dogs; assay type: in vivo; conditions: Canis lupus familiaris, emesis induced by apomorphine, read-out: Antiemetic activity in dogs, AD 50
Text: Some compounds have also antiemetic activity which was studied with the following test:
(4) Antagonism towards emetic effect induced by apomorphine in dogs (Shallek et al, Arch. Int. Pharmacodyn. 174 (1968) N°. 2, 350-372. Boissier et al, Med. Exp. 6 (1962), 320-326). The results are expressed in active doses 50% (AD 50) and set in Table IX.

[3] = Catalepsy-inducing effect in rats (method of Tedeschi); assay type: in vivo, male Sprague-Dawley (Charles River) rats; conditions: for TD50: rat, in vivo, ip
Text: (2) Catalepsy-inducing effect in rats of the same species and of the same weight, in accordance with the method of Tedeschi and colleagues (Arch. Intern. Pharmacodyn. 1959, 122, 129).
as §1

[4] = Protection against a stress due to an environment and new feedstuffs (method of Stephens); assay type: in vivo, mice; conditions: dose producing 40% increase in feedstuff taken, * no activity was observed up to this dose; for ED40: Mus musculus, po, read-out: Protection against stress in mice, AD 40
Procedure: (3) Protection against a stress due to an environment and due to new feedstuffs, in male […] (CDl strain, weight about 20 g) in accordance with the method of Stephens (Brit. J. Pharmacol. 1973, 49, 146 P.). The doses (AD 40) which produce a 40% increase in the feedstuff taken were determined.

[5] = Neuro-pharmacological tests (overall conclusion); assay type: in vivo
Text: The neuro-pharmacological activity was studied with the aid of the following three tests: […]

[6] = mouse, in vivo, ip, intraperitoneal, mice
[7] = ip, intraperitoneal, results for hydrochlorides given in weight of base
[8] = po, hydrochlorides in weight of base, * = no activity was observed up to this dose
[9] = hydrochlorides in weight of base, * = no activity was observed up to this dose

For `COc1ccc(S(N)(=O)=O)cc1C(=O)NCC1CCCN1CC1CC1` (racemic) [SL-C.036 (racemic) (cl), N-[(1-cyclopropylmethyl-pyrrolidinyl-2)-methyl]-2-methoxy-5-sulphamoyl-benzamide], the LD50 at 48 h (in vivo; [6]) was 400 mg/kg, the ED50 [1, 7] was 15 mg/kg and the ED50 [2] was 0.037 mg/kg.

With `COc1ccc(S(N)(=O)=O)cc1C(=O)NCC1CCCN1Cc1ccc(F)cc1` (racemic) [SL-C.205 (racemic) (cl), N-[(1-p-fluorobenzyl-pyrrolidinyl-2)-methyl]-2-methoxy-5-sulphamoyl-benzamide] the LD50 at 48 h (in vivo; [6]) was 750 mg/kg, the LD50 at 168 h (in vivo; mouse, in vivo, po, LD 50, oral, mice, 7 days) was 3000 mg/kg and the TD50 [3] was > 480 mg/kg. The ED50 [1, 7] was 30 mg/kg and the ED50 [1, 8] was 85 mg/kg.

For `COc1ccc(S(N)(=O)=O)cc1C(=O)NCC1CCCN1Cc1ccc(F)cc1` (racemic) [SL-C.205 (racemic) (ms), N-[(1-p-fluorobenzyl-pyrrolidinyl-2)-methyl]-2-methoxy-5-sulphamoyl-benzamide], the LD50 at 48 h (in vivo; mouse, in vivo, iv, mice) was 190 mg/kg, the “Antagonism to stereotypies induced by apomorphine in rats, AD 50” value (shortened to “Antagonism to stereotypies induced … AD 50”) ([1]; hydrochlorides in weight of base, * = no activity was observed up to this dose, racemic (ms)) was 75 mg/kg and the ED40 [4] was 60 mg/kg.

For `COc1ccc(S(N)(=O)=O)cc1C(=O)NCC1CCCN1Cc1ccc(F)cc1` (single isomer, unassigned) [SL-C.205 1 (ms), N-[(1-p-fluorobenzyl-pyrrolidinyl-2)-methyl]-2-methoxy-5-sulphamoyl-benzamide], the “activity in neuro-pharmacological tests” value ([5]; in vivo) was “practically inactive”, the LD50 at 48 h (in vivo; mouse, in vivo, iv, mice) was 160 mg/kg and the “Antagonism to stereotypies induced … AD 50” value [1, 9] was > 150 mg/kg. For the same compound, the ED40 [4] was > 30 mg/kg.

In the case of `COc1ccc(S(N)(=O)=O)cc1C(=O)NCC1CCCN1Cc1ccc(F)cc1` (single isomer, unassigned) [SL-C.205 d (ms), N-[(1-p-fluorobenzyl-pyrrolidinyl-2)-methyl]-2-methoxy-5-sulphamoyl-benzamide], the “activity relative to the racemic compound” value ([5]; depending on the chosen method of evaluation) is reported as 1.5 times or twice, the “LD 50 over 48 hours” value (in vivo; mouse, in vivo, iv) is reported as 160 mg/kg and the “Antagonism to stereotypies induced … AD 50” value [1, 9] is reported as 50 mg/kg. The “Protection against stress in mice, AD 40” value ([4]; oral) was 30 mg/kg.

Compound `COc1ccc(S(N)(=O)=O)cc1C(=O)NCC1CCCN1C(C)c1ccccc1` (single isomer, unassigned) [SL-D.222 (cl), 1(-)-N-[(1-α-methylbenzyl-pyrrolidinyl-2-)-methyl]-2-methoxy-5-sulphamoyl-benzamide] has an LD50 at 48 h (in vivo; [6]) of 625 mg/kg.

For `COc1ccc(S(N)(=O)=O)cc1C(=O)NCC1CCCN1C(C)c1ccccc1` (single isomer, unassigned) [SL-D.223 (cl)], the “LD 50 over 48 hours” value (in vivo; mouse, in vivo, ip, 2880 min) was 650 mg/kg.

For `COc1ccc(S(N)(=O)=O)cc1C(=O)NC[C@@H]1CCCN1CC1CCCCC1` [77 205 (S) (+) (ms)], the ED50 [2] was 0.014 mg/kg.

With `COc1ccc(S(N)(=O)=O)cc1C(=O)NC[C@@H]1CCCN1CC1CC1` [77.075 (S) (+) (ms), N-[(1-cyclopropylmethyl-pyrrolidinyl-2)-methyl]-2-methoxy-5-sulphamoyl-benzamide] the LD50 at 48 h (in vivo; [6]) was 350 mg/kg and the ED50 [1, 7] was 4 mg/kg.

Work on `COc1ccc(S(=O)(=O)N(C)C)cc1C(=O)NCC1CCCN1CC1CC1` (stereo not shown) [77.149] yielded an LD50 at 48 h (in vivo; [6]) of 240 mg/kg, an ED50 [1, 7] of 3 mg/kg and an ED50 [2] of 0.04 mg/kg.

`COc1ccc(S(C)(=O)=O)cc1C(=O)NCC1CCCN1CC1CC1` (stereo not shown) [77.173] gave an LD50 at 48 h (in vivo; [6]) of 235 mg/kg and an ED50 [1, 7] of 1.5 mg/kg.

In the case of `COc1ccc(S(N)(=O)=O)cc1C(=O)NCC1CCCN1CC1CCCCC1` (stereo not shown) [77.205], the LD50 at 48 h (in vivo; [6]) is reported as 360 mg/kg and the ED50 [1, 7] is reported as 8 mg/kg.

`CCS(=O)(=O)c1ccc(OC)c(C(=O)NCC2CCCN2CC2CC2)c1` (stereo not shown) [77.206] showed an LD50 at 48 h (in vivo; [6]) of 310 mg/kg and an ED50 [1, 7] of 3 mg/kg.

In the case of `COc1ccc(S(N)(=O)=O)cc1C(=O)NCC1CCCN1Cc1cccc(Cl)c1` (stereo not shown) [SL-C.193 (cl)], the TD50 [3] is reported as > 300 mg/kg.

In the case of `COc1ccc(S(N)(=O)=O)cc1C(=O)NCC1CCCN1Cc1ccc(F)cc1` (stereo not shown) [SL-C.205, N-[(1-p-fluorobenzyl-pyrrolidinyl-2)-methyl]-2-methoxy-5-sulphamoyl-benzamide], the “activity compared with Sulpiride” value ([5]; than Sulpiride) is reported as “markedly more active”, the “toxicity compared with Sulpiride” value (in vivo; than Sulpiride) is reported as “much less toxic” and the induction of catalepsy ([3]; up to high doses) is reported as “does not induce catalepsy up to high doses”. For the same compound, the “antagonism to stereotypies induced in rats by apomorphine” value [1] was “powerful antagonistic agent”.

For `C#CCN1CCCC1CNC(=O)c1cc(S(N)(=O)=O)ccc1OC` (stereo not shown) [SL-C.299 (cl)], the LD50 at 48 h (in vivo; [6]) was 170 mg/kg, the TD50 [3] was > 150 mg/kg and the ED50 [1, 7] was 80 mg/kg.

In the case of `COc1ccc(S(N)(=O)=O)cc1C(=O)NCC1CCCN1C(c1ccccc1)c1ccccc1` (stereo not shown) [SL-D.090 (cl)], the LD50 at 48 h (in vivo; [6]) is reported as > 1500 mg/kg.

Work on `COc1ccc(S(C)(=O)=O)cc1C(=O)NCC1CCCN1Cc1ccc(F)cc1` (stereo not shown) [SL-D.163 (cl)] yielded an LD50 at 48 h (in vivo; [6]) of 400 mg/kg and an ED50 [1, 7] of 3 mg/kg.

For `COc1ccc(Cl)cc1C(=O)NCC1CCCN1Cc1ccc(F)cc1` (stereo not shown) [SL-D.165 (cl), N-[(1-p-fluorobenzyl-pyrrolidinyl-2)-methyl]-2-methoxy-5-chloro-benzamide], the LD50 at 48 h (in vivo; [6]) was 275 mg/kg, the ED50 [1, 7] was 1.5 mg/kg and the ED40 [4] was 30 mg/kg.

In the case of `COc1ccc(S(N)(=O)=O)cc1C(=O)NCC1CCCN1Cc1ccccc1F` (stereo not shown) [SL-D.192 (cl)], the LD50 at 48 h (in vivo; [6]) is reported as > 2000 mg/kg and the ED40 [4] is reported as 30 mg/kg.

With `COc1ccc(S(N)(=O)=O)cc1C(=O)NCC1CCCN1Cc1cccc(F)c1` (stereo not shown) [SL-D.193 (cl), N-[(1-m-fluorobenzyl-pyrrolidinyl-2)-methyl]-2-methoxy-5-sulphamoyl-benzamide] the LD50 at 48 h (in vivo; [6]) was > 2000 mg/kg, the ED50 [1, 7] was 150 mg/kg and the ED40 [4] was 30 mg/kg.

In the case of `COc1ccc(S(N)(=O)=O)cc1C(=O)NCC1CCCN1CC=Cc1ccc(F)cc1` (stereo not shown) [SL-D.194 (cl)], the LD50 at 48 h (in vivo; [6]) is reported as > 2000 mg/kg.

In the case of `COc1ccc(S(N)(=O)=O)cc1C(=O)NCC1CCCN1CCC#N` (stereo not shown) [Sl-C.262 (cl), N-[1-(2-cyanoethyl)-pyrrolidinyl-2-methyl]-2-methoxy-5-sulphamoyl-benzamide], the LD50 at 48 h (in vivo; [6]) is reported as > 2000 mg/kg.

With `CCN1CCCC1CNC(=O)c1cc(S(N)(=O)=O)ccc1OC` (stereo not shown) [Sulpiride (cl), N-[(1-ethylpyrrolidinyl-2)-methyl]-2-methoxy-5-sulphamoyl-benzamide hydrochloride, reference compound] the TD50 [3] was > 100 mg/kg, the ED50 [1, 7] was 60 mg/kg and the ED50 [1, 8] was > 600 mg/kg. For the same compound, the “antagonism to stereotypies induced in rats by apomorphine” value [1] was “inactive”.
